Target: T1, NMDAR2D expressing HEK cell membranes (Homo sapiens, UniProt O15399+Q05586)
T1 construct: expressed in transfected cells; host or cells: HEK cells (membrane extract)
Assay: NMDAR agonist assay, [3H]MK-801 binding, NMDAR2D
Format: biochemical
Conditions: 50 μM glutamate; read-out: NMDAR2D B: log EC50 (converted)
Procedure: Assays were conducted as described by Moskal et al., “GLYX-13: a monoclonal antibody-derived peptide that acts as an N-methyl-D-aspartate receptor modulator,” Neuropharmacology, 49, 1077-87, 2005. These studies were designed to determine if the test compounds act to facilitate NMDAR activation in NMDAR2A, NMDAR2B, NMDAR2C or NMDAR2D expressing HEK cell membranes as measured by increases in [^3H]MK-801 binding.
In the assay, 300 μg of NMDAR expressing HEK cell membrane extract protein was preincubated for 15 minutes at 25° C. in the presence of saturating concentrations of glutamate (50 μM) and varying concentrations of test compound (1×10^−15 M-1×10^−7 M), or 1 mM glycine. Following the addition of 0.3 μCi of [^3H]MK-801 (22.5 Ci/mmol), reactions were again incubated for 15 minutes at 25° C. (nonequilibrium conditions). Bound and free [^3H]MK-801 were separated via rapid filtration using a Brandel apparatus.
In analyzing the data, the DPM (disintegrations per minute) of [^3H]MK-801 remaining on the filter were measured for each concentration of test compound or for 1 mM glycine. The DPM values for each concentration of a ligand (N=2) were averaged. The baseline value was determined from the best fit curve of the DPM values modeled using the GraphPad program and the log(agonist) vs. response(three parameters) algorithm was then subtracted from all points in the dataset. The % maximal [^3H]MK-801 binding was then calculated relative to that of 1 mM glycine: all baseline subtracted DPM values were divided by the average value for 1 mM glycine. The EC50 and % maximal activity were then obtained from the best fit curve of the % maximal [^3H]MK-801 binding data modelled using the GraphPad program and the log(agonist) vs. response(three parameters) algorithm.
The tables below summarize the results for the wild type NMDAR agonists NMDAR2A, NMDAR2B, NMDAR2C, and NMDAR2D, and whether the compound is not an agonist (−), is an agonist (+), or is a strong agonist (++), where column A is based on the % maximal [^3H]MK-801 binding relative to 1 mM glycine (−=0; <100%=+; and >100%=++); and column B is based on log EC50 values (0=−; ≥1×10^−9 M (e.g., −8)=+; and <1×10^−9 M (e.g., −10)=++).

T1 sequence (O15399 28-1336, other chains not shown): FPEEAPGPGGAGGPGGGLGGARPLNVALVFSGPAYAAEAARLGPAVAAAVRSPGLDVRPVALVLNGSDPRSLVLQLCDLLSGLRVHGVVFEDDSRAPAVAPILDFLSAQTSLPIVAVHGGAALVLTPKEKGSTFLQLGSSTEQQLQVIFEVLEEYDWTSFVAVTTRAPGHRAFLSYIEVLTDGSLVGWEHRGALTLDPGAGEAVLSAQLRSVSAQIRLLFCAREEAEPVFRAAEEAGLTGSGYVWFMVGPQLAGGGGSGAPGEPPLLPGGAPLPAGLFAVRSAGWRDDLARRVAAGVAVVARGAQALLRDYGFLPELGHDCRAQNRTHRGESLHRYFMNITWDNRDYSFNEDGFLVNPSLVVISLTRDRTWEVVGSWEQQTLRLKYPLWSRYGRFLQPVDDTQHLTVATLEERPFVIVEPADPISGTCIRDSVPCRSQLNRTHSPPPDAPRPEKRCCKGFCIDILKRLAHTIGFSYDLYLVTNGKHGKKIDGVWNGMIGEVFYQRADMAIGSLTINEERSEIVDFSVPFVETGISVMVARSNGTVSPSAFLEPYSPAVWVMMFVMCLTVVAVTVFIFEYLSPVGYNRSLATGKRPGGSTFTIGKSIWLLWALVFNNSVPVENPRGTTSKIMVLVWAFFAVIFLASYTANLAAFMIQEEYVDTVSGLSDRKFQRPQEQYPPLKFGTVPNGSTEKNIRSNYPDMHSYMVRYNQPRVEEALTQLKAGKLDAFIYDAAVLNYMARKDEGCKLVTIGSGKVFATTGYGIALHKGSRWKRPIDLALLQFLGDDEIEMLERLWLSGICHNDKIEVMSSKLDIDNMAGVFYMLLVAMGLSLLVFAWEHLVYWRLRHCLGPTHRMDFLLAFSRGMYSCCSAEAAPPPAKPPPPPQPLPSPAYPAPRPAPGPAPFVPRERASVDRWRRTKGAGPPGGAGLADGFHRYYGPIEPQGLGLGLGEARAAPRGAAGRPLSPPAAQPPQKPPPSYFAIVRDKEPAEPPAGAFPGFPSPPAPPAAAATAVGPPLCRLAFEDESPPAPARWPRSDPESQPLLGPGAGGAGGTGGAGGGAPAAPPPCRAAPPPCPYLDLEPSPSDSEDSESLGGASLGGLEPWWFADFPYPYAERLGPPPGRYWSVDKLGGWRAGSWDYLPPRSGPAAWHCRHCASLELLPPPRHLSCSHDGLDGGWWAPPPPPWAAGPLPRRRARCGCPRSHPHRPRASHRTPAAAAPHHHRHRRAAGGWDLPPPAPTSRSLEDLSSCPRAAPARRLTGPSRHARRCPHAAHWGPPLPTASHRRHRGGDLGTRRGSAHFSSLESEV

For COc1ccc(CN2C[C@@]3(CCNC(=O)C3)C2=O)cc1 [Compound AA-2, 2-(4-methoxybenzyl)-2,7-diazaspiro[3.5]nonane-1,6-dione], the EC50 was < 1 nM.

Reference: patent US12084444B2, “Spiro-lactam NMDA modulators and methods of using same” (Tenacia Biotechnology (Hong Kong) Co., Limited, priority 2016, dated 2024)
